Measured values: US6878699B1, “Taccalonolide microtubule stabilizing agents” (University of Hawaii, priority 1999, dated 2005)

Key:
[1] = system: MDA-MB-435 human mammary adenocarcinoma cell line; experiment: Inhibition of cell proliferation, sulforhodamine B (SRB) assay; details: read-out: IC50 inhibition of proliferation, MDA-MB-435, 48 hr treatment, mean of 3 or 4 experiments ± SD
Protocol: (§1) A-10 rat aortic smooth muscle cells, SK-OV-3 human ovarian carcinoma cell line and HeLa cells were obtained from the American Type Culture Collection (Manassas, Va.) and were cultured in BME containing 10% FBS and 50 μg/1 mL gentamycin sulfate. […] The A-10, HeLa, SK-OV-3, and SKVBL-1 cells were grown in Basal Medium Eagle containing Earle's salts, 50 μg/ml gentamycin, and 10% fetal bovine sorum (Hyclone, Logan Utah). Vinblastine was added to a final concentration of 1 μg/mL to SKVLB-1 cells 24 hours after passage to maintain selection pressure for P-glycoprotein-overexpressing cells.
(§2) The IC50 for inhibition of cell proliferation was determined by measuring cell-associated protein after drug treatment using the sulforhodamine B assay (see, for example, J. Natl. Cancer Inst. 82:1107-1112 (1990) and Drug Development Res. 34:91-109 (1995)).
(§3) The IC50 for each cell line was calculated from the dose response curves. The resistance factor was calculated by dividing the IC50 of the drug sensitive cell line by the IC50 of the drug resistant cell line. The values represent the mean of 3 or 4 experiments ± the SD.

[2] = system: SK-OV-3 human ovarian carcinoma cell line; experiment: as above; assay type: cell-based; details: 48 hr treatment, mean of 3 or 4 experiments ± SD
Protocol: as §1, §2, §3

[3] = system: A-10 rat aortic smooth muscle cells; experiment: Indirect immunofluorescence of microtubules, mitotic spindles and nuclei; details: low concentration 0.5 μM; cell line not specified (A-10 or HeLa)
Protocol: A-10 cells were grown to 70-85% confluency on glass coverslips in BME/10% FBS. Drug compounds in PBS were added to the indicated final concentrations and cells were incubated for an additional 24 hours. For the staining of microtubules and intermediate filaments, the cells were fixed with cold methanol for 5 minutes, blocked for 20 minutes with PBS containing 10% calf serum to block nonspecific binding sites, and incubated at 37° C. for 60-90 min with monoclonal anti-β-tubulin at the dilutions recommended by the manufacturer. Bound primary antibodies were subsequently visualized by a one hour incubation with fluorescein (FITC)-conjugated sheep antimouse IgG (F-3008; Sigma). The coverslips were washed, stained with 0.1 μg/mL DAPI for 10 minutes, mounted on microscope slides and the fluorescence patterns were examined and photographed using a Zeiss Axioplan microscope equipped with epifluorescence optics for fluorescein and DAPI.

[4] = system: purified glycerol-free bovine brain tubulin; experiment: Assembly of purified tubulin (turbidity); assay type: biochemical; details: for Potency in tubulin polymerization relative to Taxol/paclitaxel: compared with 2 μM paclitaxel
Protocol: The assembly of purified tubulin was monitored spectrophotometrically by the change in absorbance at 340 nm. Purified glycerol-free bovine brain tubulin (TL-238, Cytoskeleton, Denver, Colo.) was solubilized in ice cold G-PEM buffer (80 mM PIPES, pH 6.9, 1 mM MgCl2, 1 mM EGTA and 1 mM GTP) and taccalonolide, Taxol or vehicle control was added and mixed well. The final concentration of tubulin was 1 mg/ml and ethanol concentration was 1% or less. An aliquot of the mixture was transferred to a room temperature 96 well plate and tubulin polymerization monitored for 60 min. at 35° C. in a temperature controlled microplate spectrophotometer.

[5] = system: Bc1-2 and caspase 3; details: 18 and 24 hrs following treatment
Protocol: Following drug exposure the cells were harvested and cellular proteins extracted in radioimmunoprecipitation buffer in the presence of protease inhibitors as described previously (see Mooberry et al., Supra). The protein concentrations of the samples were determined (Pierce Reagent, Rockford, Ill.) and cell lysate aliquots containing equal concentrations of protein were separated, transferred, probed with specific antibodies, and detected as previously described (see Mooberry et al., in Cancer Res. 59:653-660 (1999)). The Bc1-2 and caspase 3 antibodies were purchased from PharMingin (San Diego, Calif.).

[6] = system: SKVLB-1 cell line (sub-line of SK-OV-3 selected for resistance to vinblastine, P-glycoprotein-overexpressing); experiment: Inhibition of cell proliferation, SRB assay, multidrug-resistant line
Protocol: as §1, §2, §3

[7] = system: SKVLB-1 cell line (sub-line of SK-OV-3 selected for resistance to vinblastine, P-glycoprotein-overexpressing); details: SK-OV-3 versus SKVLB-1; Mooberry et al. 1999, Smith et al. 1994; cited from earlier work
[8] = system: SKVLB-1 cell line (sub-line of SK-OV-3 selected for resistance to vinblastine, P-glycoprotein-overexpressing)
Protocol: as §1, §2, §3

## taccalonolide A
[1]
  IC50: 2100 nM
[2]
  IC50: 2300 nM
[3]
  First observable cellular change in dose-response study: abnormal coordination of the DNA in the metaphase plate during mitosis
[4]; 2 μM and 200 μM, 35° C., 60 min
  Effect on polymerization of purified tubulin: stimulated the polymerization of tubulin
[4]; listed as Taccalonolide
  Potency in tubulin polymerization relative to Taxol/paclitaxel: much less potent than Taxol
[4]; listed as taccalonolide
  Potency in tubulin polymerization relative to Taxol/paclitaxel: much less potent than paclitaxel
[5]
  p17 subunit of activated caspase 3 by immunoblot: detected
[6]; P-glycoprotein overexpressing line
  Inhibition of proliferation of SKVLB-1 (in words): completely inhibit the proliferation
[6]; SK-OV-3 (drug-sensitive) versus SKVLB-1 (drug resistant) IC50
  Resistance factor: 285
[6]; inferred from resistance factor SK-OV-3/SKVLB-1
  Substrate for P-glycoprotein mediated drug transport: poor substrate
[6]; read-out: IC50 inhibition of proliferation, SKVLB-1, 48 hr treatment, SRB assay, multidrug-resistant line, mean of 3 or 4 experiments ± SD
  IC50: 656000 ± 42000 nM

## C=C1C[C@H](C)C[C@@H]2CC=C[C@@H](C/C=C\C(=O)O[C@H]([C@@H](O)/C=C/[C@@H]3CC(C)=CCO3)C[C@@H]3O[C@H]3[C@@H](O)C1)O2 [laulimalide]
[7]
  Resistance factor (literature): 105

## COc1ccc(C[C@H]2NC(=O)/C=C/C[C@@H]([C@H](C)[C@H]3O[C@@H]3c3ccccc3)OC(=O)[C@H](CC(C)C)OC(=O)[C@H](C)CNC2=O)cc1Cl [cryptophycin 1]
[7]
  Resistance factor (literature): 1.1

## CC(=O)O[C@H]1C(=O)[C@@]2(C)[C@H]([C@H](OC(=O)c3ccccc3)[C@]3(O)C[C@H](OC(=O)[C@H](O)[C@@H](NC(=O)c4ccccc4)c4ccccc4)C(C)=C1C3(C)C)[C@]1(OC(C)=O)CO[C@@H]1C[C@@H]2O [Paclitaxel]
[8]
  inhibition: ≤ 70%
[7]
  Resistance factor (literature): greater than 58,000
